Measurements published in US12491252B2, “Substituted 3-amino-5-phenylbenzamide compounds as covalent inhibitors of enhancer zeste homolog 2 (EZH2) and proteolysis-targeting chimeric derivatives thereof (PROTACs) that induce degradation of EZH2” (Northwestern University, priority 2021, dated 2025).

Columns and labels:
EZH2 [1] = target: T1, EZH2 (Homo sapiens, UniProt Q15910); experiment: Western blot of EZH2 protein in C4-2B cells; details: for Degradation of EZH2: FIG. 14, 10 μM for 6 days; for Degrading EZH2 protein: FIG. 5, 24 or 48 hours
LNCaP cells [2] = experiment: Live imaging cell proliferation of LNCaP cells; type: cell-based; details: FIG. 17A, monitored over 168 hours
Excerpt: FIG. 17A-17B. (FIG. 17A) Live imaging cell proliferation of LNCaP cells. […] DMSO is set as the negative control. […] (FIG. 17B) Colony assays using LnCaP cells after treatment with the indicated compounds for 7 days.

LNCaP cells [3] = experiment: Colony assay using LnCaP cells; type: cell-based; details: FIG. 17B, treatment for 7 days
Procedure: FIG. 17A-17B. (FIG. 17A) Live imaging cell proliferation of LNCaP cells. Cells were treated with indicated compounds and monitored over 168 hours for proliferation by phase object confluence. DMSO is set as the negative control. […] (FIG. 17B) Colony assays using LnCaP cells after treatment with the indicated compounds for 7 days.

LNCaP cells [4] = experiment: Imaging of LnCaP cells (cell density); type: cell-based; details: FIG. 18, 12 days' treatment
Excerpt: FIG. 18. Imaging of LnCaP cells after 12 days' treatment with the indicated compounds.

C4-2B cells [5] = experiment: Live imaging cell proliferation of C4-2B cells; type: cell-based; details: FIG. 20A, monitored over 168 hours
Excerpt: FIG. 20A-20B. (FIG. 20A) Live imaging cell proliferation of C4-2B cells. […] DMSO is set as the negative control. […] (FIG. 20B) Colony assays using C4-2B cells after treatment with the indicated compounds for 7 days.

C4-2B cells [6] = experiment: Colony assay using C4-2B cells; type: cell-based; details: FIG. 20B, treatment for 7 days
Procedure: FIG. 20A-20B. (FIG. 20A) Live imaging cell proliferation of C4-2B cells. Cells were treated with indicated compounds and monitored over 168 hours for proliferation by phase object confluence. DMSO is set as the negative control. […] (FIG. 20B) Colony assays using C4-2B cells after treatment with the indicated compounds for 7 days.

C4-2B cells [7] = experiment: Imaging of C4-2B cells (cell density); type: cell-based; details: FIG. 21, 12 days' treatment
Excerpt: FIG. 21. Imaging of C4-2B cells after 12 days' treatment with the indicated compounds.

EZH2 [8] = target: T1, EZH2; experiment: Western blot of EZH2 protein in PC3 cells; details: FIG. 26, 6 days treatment
Excerpt: (Upper right western blot) Western blot analysis of EZH2 protein in PC3 cells after 6 days treatment.

EZH2 [9] = target: T1, EZH2; experiment: Western blot of EZH2 protein in DU-145 cells; details: FIG. 27, 6 days treatment
Excerpt: (Upper right western blot) Western blot analysis of EZH2 protein in DU-145 cells after 6 days treatment.

SUZ12 = experiment: Western blot of SUZ12 in C4-2B cells; type: cell-based; details: FIG. 14, 10 μM for 6 days
H3K27me3 = experiment: Western blot of H3K27me3 levels in C4-2B cells; type: cell-based; details: FIG. 14, 10 μM for 6 days
[10] = Pharmacokinetics in mice, IP cassette dosing, plasma LC/MS/MS; type: in vivo, C57Bl/6 mouse; details: mouse, C57Bl/6 mice, 4 mg/kg IP, cassette format
Procedure: FIG. 35. Pharmacokinetics of indicated compounds. Compounds were administered to C57Bl/6 mouse mice at 4 mg/kg using intraperitoneal (IP) injection in cassette format. Plasma was collected at the indicated time points and analyzed by LC/MS/MS using standard methods.
For assessing pharmacokinetics, compounds were administered to C57Bl/6 mouse mice at 4 mg/kg using intraperitoneal (IP) injection in cassette format. Plasma was collected at the indicated time points and analyzed by LC/MS/MS using standard methods.

EZH2 [11] = target: T1, EZH2; experiment: Western blot of EZH2 with esiRNA knockdown of VHL or siRNA control; type: cell-based; details: FIG. 16; siRNA control lane; duplicate
Procedure: FIG. 16. Cells were treated with indicated compounds with either esiRNA knockdown of VHL or siRNA control (no EZH2 knockdown) and blotted for EZH2 and VHL. […] Experiment was run in duplicate with both replicates shown on the left and right sides.

[12] = FIG. 7, 24 hours, 5 μM or 10 μM MG132
[13] = FIG. 1, increasing doses 24 or 48 hours, or 0.5 μM over a time course

T1 sequence (Q15910 whole entry): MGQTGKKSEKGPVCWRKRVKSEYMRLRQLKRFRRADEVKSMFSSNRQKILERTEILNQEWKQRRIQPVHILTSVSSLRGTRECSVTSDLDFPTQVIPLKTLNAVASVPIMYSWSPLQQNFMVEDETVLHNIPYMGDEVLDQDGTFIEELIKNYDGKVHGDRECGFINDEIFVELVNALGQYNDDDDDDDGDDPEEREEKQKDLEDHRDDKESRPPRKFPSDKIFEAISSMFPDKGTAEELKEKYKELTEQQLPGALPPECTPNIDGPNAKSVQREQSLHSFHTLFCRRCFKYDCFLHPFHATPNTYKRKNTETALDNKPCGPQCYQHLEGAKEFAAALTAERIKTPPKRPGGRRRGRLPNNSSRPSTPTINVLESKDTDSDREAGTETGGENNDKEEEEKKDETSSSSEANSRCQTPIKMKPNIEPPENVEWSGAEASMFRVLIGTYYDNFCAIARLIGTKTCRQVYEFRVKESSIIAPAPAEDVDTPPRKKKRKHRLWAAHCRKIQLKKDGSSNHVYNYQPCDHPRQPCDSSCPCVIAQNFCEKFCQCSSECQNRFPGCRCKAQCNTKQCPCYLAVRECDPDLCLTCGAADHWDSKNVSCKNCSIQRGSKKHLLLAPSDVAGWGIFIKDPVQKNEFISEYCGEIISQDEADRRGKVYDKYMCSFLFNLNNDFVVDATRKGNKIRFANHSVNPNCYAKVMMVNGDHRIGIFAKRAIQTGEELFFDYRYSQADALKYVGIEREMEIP
T1 sequence (Q15022 whole entry partner): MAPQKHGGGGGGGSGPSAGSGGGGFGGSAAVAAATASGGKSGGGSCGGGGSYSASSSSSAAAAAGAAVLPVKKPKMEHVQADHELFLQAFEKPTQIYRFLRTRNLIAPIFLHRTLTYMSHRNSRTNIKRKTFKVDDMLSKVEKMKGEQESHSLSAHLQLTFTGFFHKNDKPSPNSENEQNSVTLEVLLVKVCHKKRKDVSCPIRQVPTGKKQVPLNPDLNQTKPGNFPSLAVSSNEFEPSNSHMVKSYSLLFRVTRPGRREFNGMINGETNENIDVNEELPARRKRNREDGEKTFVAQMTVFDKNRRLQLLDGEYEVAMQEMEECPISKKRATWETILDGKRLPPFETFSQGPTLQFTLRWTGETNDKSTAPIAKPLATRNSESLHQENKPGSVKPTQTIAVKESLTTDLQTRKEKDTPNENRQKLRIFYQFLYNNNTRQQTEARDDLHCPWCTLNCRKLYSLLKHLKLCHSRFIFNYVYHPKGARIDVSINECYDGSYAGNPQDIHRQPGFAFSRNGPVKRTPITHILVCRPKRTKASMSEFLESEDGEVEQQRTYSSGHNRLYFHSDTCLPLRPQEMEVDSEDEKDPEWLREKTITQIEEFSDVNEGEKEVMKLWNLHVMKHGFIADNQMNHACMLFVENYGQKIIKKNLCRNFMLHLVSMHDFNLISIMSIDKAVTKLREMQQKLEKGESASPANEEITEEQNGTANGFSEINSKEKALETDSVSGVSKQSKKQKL
T1 sequence (O75530 whole entry partner): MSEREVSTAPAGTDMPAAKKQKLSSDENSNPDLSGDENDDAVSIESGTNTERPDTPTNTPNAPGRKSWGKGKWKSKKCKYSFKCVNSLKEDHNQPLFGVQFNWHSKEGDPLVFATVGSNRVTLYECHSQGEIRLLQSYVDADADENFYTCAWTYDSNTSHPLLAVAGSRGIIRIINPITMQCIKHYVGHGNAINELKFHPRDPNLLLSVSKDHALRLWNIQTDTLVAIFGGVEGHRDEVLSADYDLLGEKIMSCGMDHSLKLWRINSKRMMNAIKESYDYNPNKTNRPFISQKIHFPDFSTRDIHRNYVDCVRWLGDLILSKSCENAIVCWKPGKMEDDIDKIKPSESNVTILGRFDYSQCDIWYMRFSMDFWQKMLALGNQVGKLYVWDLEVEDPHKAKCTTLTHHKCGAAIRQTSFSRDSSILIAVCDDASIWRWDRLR

In the case of `CCN(c1cc(-c2ccc(CN3CCN(C(=O)CCCCCCCCC(=O)N[C@H](C(=O)N4C[C@H](O)C[C@H]4C(=O)NCc4ccc(-c5scnc5C)cc4)C(C)(C)C)CC3)cc2)cc(C(=O)NCc2c(C)cc(C)[nH]c2=O)c1C)C1CCOCC1` [Compound 6271], the “Restoration of EZH2 by proteasome inhibitor MG132” value (EZH2 [1]; FIG. 11, 24 hours, 10 μM MG132) is reported as “restored EZH2”.
For `CCN(c1cc(-c2ccc(CN3CCOCC3)cc2)cc(C(=O)NCc2c(C)cc(C)[nH]c2=O)c1C)C1CCN(C(=O)CCCCCCCCCCC(=O)NCCOc2cccc3c2C(=O)N(C2CCC(=O)NC2=O)C3=O)CC1` (stereo not drawn) [Compound 2099], the “EZH2 protein levels (western blot)” value (EZH2 [1]; FIG. 28, 24 hours) was “reduce EZH2 protein levels”.
For `CCN(c1cc(-c2ccc(CN3CCN(CCCCCCCCCCCC(=O)N[C@H](C(=O)N4C[C@@H](O)C[C@H]4C(=O)NCc4ccc(-c5scnc5C)cc4)C(C)(C)C)CC3)cc2)cc(C(=O)NCc2c(C)cc(C)[nH]c2=O)c1C)C1CCOCC1` [Compound 6300], the “Cell proliferation by phase object confluence” value (shortened to “Cell proliferation”) (LNCaP cells [2]) was “limited ability to inhibit cell proliferation”, the Colonies (LNCaP cells [3]) was “attenuated anti-proliferative effects” and the “Cell density by imaging” value (LNCaP cells [4]) was “attenuated anti-proliferative effects”. For the same compound, the “Cell proliferation” value (C4-2B cells [5]) was “limited ability to inhibit cell proliferation”, the Colonies (C4-2B cells [6]) was “attenuated anti-proliferative effects” and the “Cell density by imaging” value (C4-2B cells [7]) was “attenuated anti-proliferative effects”. The “EZH2 protein (western blot)” value (EZH2 [8]) was “no changes”, the “Degradation of EZH2” value (EZH2 [1]) was “no ability to degrade EZH2” and the “EZH2 protein (western blot)” value (EZH2 [9]) was “no changes”.
With `CCN(c1cc(-c2ccc(CN3CCN(C(=O)CCCCCCCCCCC(=O)N[C@H](C(=O)N4C[C@H](O)C[C@@H]4C(=O)NCc4ccc(-c5scnc5C)cc4)C(C)(C)C)CC3)cc2)cc(C(=O)NCc2c(C)cc(C)[nH]c2=O)c1C)C1CCOCC1` [Compound 2304, (2R,4R)-1-[(2S)-2-(12-{4-[(3′-{[(4,6-dimethyl-2-oxo-1,2-dihydropyridin-3-yl)methyl]carbamoyl}-5′-[ethyl(oxan-4-yl)amino]-4′-methyl-[1,1′-biphenyl]-4-yl)methyl]piperazin-1-yl}-12-oxododecanamido)-3,3-dimethylbutanoyl]-4-hydroxy-N-{[4-(4-methyl-1,3-thiazol-5-yl)phenyl]methyl}pyrrolidine-2-carboxamide] the “Reduction of PRC2 component SUZ12” value (SUZ12) was “reduction of PRC2 component SUZ12”, the H3K27me3 levels (H3K27me3) was “reduced H3K27me3 levels” and the half-life [10] was 3.5 to 6 h. For the same compound, the “EZH2 degradation, comparison within a list of VHL-PROTAC” value (EZH2 [1]; FIG. 4, 24 hours) was “most effective”, the “Degrading EZH2 protein” value (EZH2 [1]) was “effective in degrading EZH2 protein” and the “Degrading EZH2 protein, 2304 versus 2305” value (EZH2 [1]; FIG. 6, 24 or 48 hours) was “more effective than 2305”. For the same compound, the “Restoration of EZH2 by proteasome inhibitor MG132” value (EZH2 [1]; [12]) was “restored EZH2”, the “Restoration of EZH2 by proteasome inhibitor MG132” value (EZH2 [1]; FIG. 11, 24 hours, 10 μM MG132) was “restored EZH2” and the “Degradation of EZH2” value (EZH2 [1]) was “strong degradation of EZH2”. The “EZH2 protein levels (western blot)” value (EZH2 [1]; FIG. 28, 24 hours) was “significant reduction in EZH2”.
For `CCN(c1cc(-c2ccc(CN3CCN(C(=O)COCC(=O)NCCCC(=O)NCCOc4cccc5c4C(=O)N(C4CCC(=O)NC4=O)C5=O)CC3)cc2)cc(C(=O)NCc2c(C)cc(C)[nH]c2=O)c1C)C1CCOCC1` (stereo not drawn) [Compound 2186], the “EZH2 protein levels (western blot)” value (EZH2 [1]; FIG. 28, 24 hours) was “inactive at degrading EZH2”.
With `Cc1cc(C)c(CNC(=O)c2cc(-c3ccc(N4CCN(CCNC(=O)CC56CC7CC(CC(C7)C5)C6)CC4)nc3)cc3c2cnn3C(C)C)c(=O)[nH]1` [MS1943, reference compound] the “Ability to degrade EZH2 at 0.5 μM” value (EZH2 [1]; FIG. 28, 24 hours, 0.5 μM) was “no ability to degrade EZH2”.
In the case of `CCN(c1cc(-c2ccc(CN3CCN(C(=O)CCCCCCCCCC(=O)N[C@H](C(=O)N4C[C@@H](O)C[C@H]4C(=O)NCc4ccc(-c5scnc5C)cc4)C(C)(C)C)CC3)cc2)cc(C(=O)NCc2c(C)cc(C)[nH]c2=O)c1C)C1CCOCC1` [Compound 6286], the “Ability to degrade EZH2 with siRNA control (VHL present)” value (EZH2 [11]) is reported as “inactive control”, the “Cell proliferation” value (LNCaP cells [2]) is reported as “limited ability to inhibit cell proliferation” and the Colonies (LNCaP cells [3]) is reported as “attenuated anti-proliferative effects”. For the same compound, the “Cell density by imaging” value (LNCaP cells [4]) was “attenuated anti-proliferative effects”, the “Cell proliferation” value (C4-2B cells [5]) was “limited ability to inhibit cell proliferation” and the Colonies (C4-2B cells [6]) was “attenuated anti-proliferative effects”. The “Cell density by imaging” value (C4-2B cells [7]) was “attenuated anti-proliferative effects”, the “EZH2 protein (western blot)” value (EZH2 [8]) was “no changes” and the “Degradation of EZH2” value (EZH2 [1]) was “no ability to degrade EZH2”. For the same compound, the “EZH2 protein (western blot)” value (EZH2 [9]) was “no changes”.
In the case of `CCN(c1cc(-c2ccc(CN3CCN(C(=O)CCCCCCCCCCCCCCC(=O)N[C@H](C(=O)C4C[C@H](O)C[C@H]4C(=O)NCc4ccc(-c5scnc5C)cc4)C(C)(C)C)CC3)cc2)cc(C(=O)NCc2c(C)cc(C)[nH]c2=O)c1C)C1CCOCC1` (stereo partly drawn) [Compound 2305], the half-life [10] is reported as 3.5 to 6 h, the “EZH2 protein levels (western blot)” value (EZH2 [1]; [13]) is reported as “decreases EZH2 protein levels” and the “Rescue of EZH2 protein degradation by proteasome inhibitor MG132” value (EZH2 [1]; FIG. 2, 5 μM compound with or without MG132) is reported as “can be rescued by proteasome inhibitor MG132”. The “Degrading EZH2 protein” value (EZH2 [1]) was “effective in degrading EZH2 protein”, the “Restoration of EZH2 by proteasome inhibitor MG132” value (EZH2 [1]; [12]) was “restored EZH2” and the “EZH2 protein levels (western blot)” value (EZH2 [1]; FIG. 28, 24 hours) was “significant reduction in EZH2”.
For `CCN(c1cc(-c2ccc(CN3CCN(C(=O)CCCCCCCCCCCCCCC(=O)N[C@H](C(=O)N4C[C@@H](O)C[C@H]4C(=O)NCc4ccc(-c5scnc5C)cc4)C(C)(C)C)CC3)cc2)cc(C(=O)NCc2c(C)cc(C)[nH]c2=O)c1C)C1CCOCC1` [Compound 3571], the “EZH2 protein levels (western blot)” value (EZH2 [1]; [13]) was “inactive” and the “Degrading EZH2 protein, versus 2305” value (EZH2 [1]; FIG. 12, 24 hours) was “less effective than 2305”.
For `CCN(c1cc(-c2ccc(N3CCN(C(=O)CCC(=O)NCCCC(=O)NCCCC(=O)NCCCOc4cccc5c4C(=O)N(C4CCC(=O)NC4=O)C5=O)CC3)cc2)cc(C(=O)NCc2c(C)cc(C)[nH]c2=O)c1C)C1CCOCC1` (stereo not drawn) [Compound 2190], the “EZH2 protein levels (western blot)” value (EZH2 [1]; FIG. 28, 24 hours) was “reduce EZH2 protein levels”.
In the case of `CCN(c1cc(-c2ccc(CN3CCN(C(=O)CCCCCCCCCCCC(=O)N[C@H](C(=O)N4C[C@H](O)C[C@H]4C(=O)NCc4ccc(-c5scnc5C)cc4)C(C)(C)C)CC3)cc2)cc(C(=O)NCc2c(C)cc(C)[nH]c2=O)c1C)C1CCOCC1` [Compound 6273], the “Restoration of EZH2 by proteasome inhibitor MG132” value (EZH2 [1]; FIG. 11, 24 hours, 10 μM MG132) is reported as “restored EZH2”.
For `CCN(c1cc(-c2ccc(CN3CCN(C(=O)CCCCCCCCCCC(=O)N[C@H](C(=O)N4C[C@@H](O)C[C@H]4C(=O)NCc4ccc(-c5scnc5C)cc4)C(C)(C)C)CC3)cc2)cc(C(=O)NCc2c(C)cc(C)[nH]c2=O)c1C)C1CCOCC1` [Compound 6285], the “Degradation of EZH2” value (EZH2 [1]) was “no ability to degrade EZH2”.
With `CCN(c1cc(-c2ccc(CN3CCOCC3)cc2)cc(C(=O)NCc2c(C)cc(C)[nH]c2=O)c1C)C1CCN(C(=O)CCCCCCCCCCCCCCC(=O)NCCOc2cccc3c2C(=O)N(C2CCC(=O)NC2=O)C3=O)CC1` (stereo not drawn) [Compound 2100] the “EZH2 protein levels (western blot)” value (EZH2 [1]; FIG. 28, 24 hours) was “reduce EZH2 protein levels”.
